Test results taken from patent publication US10759781B2, “Substituted guanidine derivatives” (UBE INDUSTRIES, LTD., priority 2015, dated 2020).

Tests used:
[1] = system: Human normal glomerular microvascular endothelial cells; type: cell-based; conditions: 2 days, 100 nM
Protocol: The Cytotoxicity Inhibition Test in Human Normal Glomerular Microvascular Endothelial Cells
Human normal glomerular microvascular endothelial cells were plated at 6000 cells/well in a collagen-coated 96-well culture plate. After one day of culture, the medium at each well was completely removed by aspiration and replaced with 50 μL of the compound solution diluted with the basal medium. The basal medium containing 0.1% DMSO was added to control wells. Following, the plate was incubated in CO2 incubator for 30 minutes. Fifty microliter of 2 mM methylamine diluted with the basal medium was added (final concentration 1 mM) to each negative control well (0% inhibition) as well as the compound-containing well, and 50 μL of the basal medium was added to each positive control well (100% inhibition). The plate was incubated in CO2 incubator for 2 days. Ten microliter of CCK-8 was added to each well and the mixtures were incubated in a plate incubator at 37° C. for approximately 2 hours after stirring with a plate shaker. The absorbance of the mixtures at 450 nm was measured with a multiplate reader. The cytotoxicity inhibition ratio of the compound was calculated from the following equation. Inhibition ratio={[Average absorbance of the compound-containing wells]−[Average absorbance of negative control wells]}/{[Average absorbance of positive control wells]−[Average absorbance of negative control wells]}×100

in vivo = test: in vivo; design: species or system SD rats; conditions: SD, rat, po, 3 mg/kg
Protocol: Rat Pharmacokinetic (PK) Study (Concentration of Compound in Plasma after Oral Administration)
Seven to eight week old SD rats (weighing 180 to 250 g) were orally administered with a suspension of the compound in 0.5 W/V % methylcellulose 400 solution. Under anesthesia, the blood was collected from the jugular vein in EDTA tubes at 0.25, 0.5, 1, 2, 4, 6, 8 and 24 hours after the administration of the compound. The blood was centrifuged at 4° C. and 6000 g for 3 minutes to give plasma. Acetonitrile was added to the plasma, and the mixture was stirred with a shaker at 750 rpm for 3 minutes and was deproteinized by centrifugation at 3700 rpm for 2 minutes. Thus, the obtained sample was analyzed by LC/MS under the following conditions.
The concentration of the compound in the plasma at each blood sampling time was determined by an internal standard method, and AUC all (Area Under Curve) was calculated by a trapezoidal method.
The following LC and MS systems were used for measurement.
LC: CBM 30 series manufactured by Shimadzu Corporation
Column: Phenomenex Kinetex C18 (50×2.1 mm, 2.6 μm)
Column temperature: 40° C.
Mobile phase A: 0.1% aqueous formic acid solution, mobile phase B: 0.1% formic acid,
50% acetonitrile/methanol mixture
MS: 3200 manufactured by SCIEX

Compound | cytotoxicity inhibition ratio [1] [%] | AUC (in vivo) [ng·h/mL]
CON=C1CN(c2ncc(-c3cccc(COC(=O)NC(=N)N)c3F)cc2F)C1 [Example 36, 2-fluoro-3-{5-fluoro-6-[3-(methoxyimino)azetidin-1-yl]pyridin-3-yl}benzyl carbamimidoylcarbamate] | ≥ 50 | ≥ 1000
[2H]C([2H])([2H])ON=C1CN(c2ncc(-c3cccc(COC(=O)NC(=N)N)c3F)cc2F)C1 [Example 37, 2-fluoro-3-(5-fluoro-6-{3-[(methoxy-d3)imino]azetidin-1-yl}pyridin-3-yl)benzyl carbamimidoylcarbamate] | ≥ 50 | ≥ 1000
N=C(N)NC(=O)OCc1cccc(-c2cnc(N3CC(=NOCCC(O)CO)C3)c(F)c2)c1F (stereo not shown) [Example 95, 3-(6-{3-[(3,4-Dihydroxybutoxy)imino]azetidin-1-yl}-5-fluoropyridin-3-yl)-2-fluorobenzyl carbamimidoylcarbamate] | ≥ 50 | ≥ 1000
N=C(N)NC(=O)OCc1cccc(-c2cnc(N3CC(=NOCC(CO)CO)C3)c(F)c2)c1F [Example 96, 2-Fluoro-3-{5-fluoro-6-[3-{[3-hydroxy-2-(hydroxymethyl)propoxy]imino}azetidin-1-yl]pyridin-3-yl}benzyl carbamimidoylcarbamate] | ≥ 50 | ≥ 1000
N=C(N)NC(=O)OCc1cccc(-c2cnc(N3CC(=NOCC(F)CO)C3)nc2)c1F (stereo not shown) [Example 102, 2-Fluoro-3-(2-{3-[(2-fluoro-3-hydroxypropoxy)imino]azetidin-1-yl}pyrimidin-5-yl)benzyl carbamimidoylcarbamate] | ≥ 50 | ≥ 1000
